Source: US20250114464A1, “PRE-MRNA SLICE MODULATING PEPTIDE-CONJUGATED ANTISENSE THERAPEUTICS FOR THE TREATMENT OF DISEASES” (The Governors of the University of Alberta, priority 2022, published 2025)

What was measured:
[1] = test system: Taiwanese SMA mouse model (Smn^−/− SMN2^Tg/−); test: Righting reflex test; type: in vivo; conditions: 40 mg/kg at PD0; mice that survived beyond PD12
Procedure: This spontaneous ability of the mice to right themselves up was tested from P2 until the weaning stage P20. The neonates were placed on their backs and the time taken to reposition and place all four paws on the ground was noted. The recording time was a maximum of 60 s. Each neonate underwent three trials, with a resting period of at least 10 minutes between trials. The data is expressed as the mean time to complete the righting reflex test ±SEM.

[2] = test system: Taiwanese SMA mouse model (Smn^−/− SMN2^Tg/−); test: Survival of severe SMA mice after subcutaneous injection at PD0; type: in vivo
Procedure: To examine whether DG9 peptide can increase the efficacy of PMO, DGS peptide was conjugated to an 18-mer PMO with a sequence identical to nusinersen. The DG9-conjugated PMO and unconjugated-PMO and 2′-O-methoxyethyl-RNA (MOE) were injected into SMA model mice.
Mice were subcutanteously injected with the AOs or saline (NT) administered at postnatal day 0 (PD0) at two different doses-40 mg/kg or 80 mg/kg. The survival was recorded until a humane endpoint was reached. For the 40 mg/kg doses, the median survival was 12 d (unconjugated-PMO), 15.5 d (MOE), and increased to 58 d for DG9-PMO treatment (FIG. 9a). The median survival incremented to 57 d (unconjugated-PMO), 121 d (DG9-PMO) and 64 d (MOE) for the higher dose of 80 mg/kg (FIG. 9a).
All animal experiments were conducted in University of Alberta and approved by the Animal Care and Use Committee, University of Alberta Research Ethics Office. SMA transgenic mice (JAX stock #005058 FVB.Cg-Tg(SMN2)2HungSmn1^tm1Hung/J (Smn^−/−; SMN2^Tg/Tg), also known as the Taiwanese mice) were purchased from Jackson Laboratory (Bar Harbor, ME, USA). Heterozygous mice for Smn1 (Smn1^+/−; SMN2^−/−) were crossed with mice homozygous for Smn1 Smn^−/−; SMN2^Tg/Tg to obtain the SMA mice (Smn^−/−; SMN2^Tg/−) or the heterozygous healthy control (Smn1^+/−; SMN2^Tg/−). The SMA mice display a severe overt phenotype similar to SMA type I patients. […]

[3] = test system: Taiwanese SMA mouse model (Smn^−/− SMN2^Tg/−); test: Whole-body plethysmographic recordings at PD7; type: in vivo, mice; conditions: 40 mg/kg at PD0
Procedure: Measurements were performed in whole body, cylindrical transparent plexiglass plethysmographs that had one inflow and two outflow ports for the continuous delivery of fresh room air and removal of expired carbon dioxide. The plethysmograph of volumes were 10 ml (inner diameter: 1.9 cm, length: 3.5 cm for P7 mice with body weight less than 2.5 g), 30 ml (inner diameter: 2.6 cm, length: 5.6 cm for P7 mice with body weight more than 2.5 g) and 80 ml (inner diameter: 3.8 cm, length: 7 cm for P30) for measures of respiratory parameters with a flow rate of 15, 45, 120 ml/min, respectively. The gas was mixed with gas mixer (GSM-3, CWE InC, USA), delivered from compressed pure oxygen and pure nitrogen cannisters, being monitored using 0-200 ml/min gas regulators (Porter Instrument Company, USA).
Hypoxic challenge (11% of oxygen for 5 min) was performed with continuous monitoring of plethysmographic recordings without physical handling of the animal by switching inflow gas from normoxia (21% of oxygen, balanced by nitrogen) to hypoxia (11% of oxygen, balanced by nitrogen). […] For P30, the plethysmograph was recorded at room temperature of around 22° C. Pressure changes were detected with a pressure transducer (model DP 103; Validyne, USA), signal conditioner (CD-15; Validyne), recorded with data acquisition software (Axoscope) via analog-digital board (Digidata 1322A). […]

[4] = test system: Taiwanese SMA mouse model (Smn^−/− SMN2^Tg/−); test: H and E muscle pathology (myofiber size, centrally nucleated fibers) in SMA mice; type: in vivo; conditions: 40 mg/kg at PD0
Source text: Atrophic musculature is a classical characteristic feature of SMA with diminished skeletal muscle fiber size. To determine the treatment effects on muscle pathology, we assessed the physiology and architecture of the myofibers of two affected muscle groups− the quadriceps and intercostal muscles, as well as the sparingly affected diaphragm at PD7 and PD30 [79,80]. We quantified the cross-sectional area (CSA), the minimal feret's diameter and centrally nucleated fibers for at least 500 myofibers per muscle for each treatment using hematoxylin & eosin (H & E) staining at PD7 and PD30 (FIG. 12a, b, FIGS. 19 and 20).
7 μm cryosections of the quadricep muscle, diaphragm and intercostal muscle were stained with Meyer's H&E reagents (Electron Microscopy Reagents). For the centrally nucleated fibers and myofiber size, 500-800 were randomly selected per muscle per treatment. The cross-sectional area and minimal Feter's diameter were quantified using Image J. All H and E analyses were performed in a blinded fashion.

[5] = test system: Taiwanese SMA mouse model (Smn^−/− SMN2^Tg/−); test: Neuromuscular junction (NMJ) staining at PD30; type: in vivo, mice; conditions: 40 mg/kg at PD0
Procedure: NMJ staining was carried out as previously described. Briefly, the quadricep and the intercostal muscle were fixed in 4% paraformaldehyde (PFA) for 2 hours. The muscles were washed quicky with PBS and blocked with 5% goat serum and 2% Triton-X in PBS for 1 hour at RT. This was followed by an overnight incubation at 4 with the primary mouse monoclonal antibodies anti-neurofilament 2H3 (1:100) and anti-synaptophysin (1:500) (DSHB, Iowa). Subsequently, the muscles were incubated in the dark with Alexafluor 488-goat anti-mouse IgG1 (1:1000) (Life Technologies) and Alexafluor 594-bungarotoxin (1:5000) (ThermoFisher Scientific). At least 300 NMJs were z-stacked and visualized for the analysis of denervation and cross-sectional area using a confocal microscope (Zeiss LSM 710) and Zeiss Zen software. The synaptic area was quantified using image J. All analyses were performed in a blinded fashion.

[6] = test system: dystrophin; conditions: in vitro; cited from earlier work
[7] = test system: dystrophin; conditions: patients, after 180 weeks of treatment with 30 or 50 mg/kg/week; cited from earlier work

Substance: unconjugated-PMO: Example 2: 18-mer PMO targeting ISS-N1 intron 7 (5′-TCACTTTCATAATGCTGG-3′), sequence identical to nusinersen (all phosphorodiamidate morpholino (PMO); unconjugated)
- time to right themselves on their paws [1]: still took longer than DG9-PMO mice
- median survival ([2]; 40 mg/kg subcutaneous at PD0): 12 days
- median survival ([2]; 80 mg/kg subcutaneous at PD0): 57 days
- respiratory parameters (fR, VE, VT) ([3]; PD7, hypoxic environment (11% O2), relative to normoxia): slow, weak, and irregular breathing when compared to the Hets
- respiratory phenotype ([3]; PD7, normoxic conditions (21% O2)): Half of the unconjugated-PMO mice (n=14) exhibited parameters as seen in NT mice
- quadriceps myofiber size ([4]; PD7): significantly smaller than those of DG9-PMO
- myofiber size and percent of central nuclei ([4]; PD30, all three tissue types): significantly smaller myofibers and a higher percent of central nuclei compared to DG9-PMO
- NMJ architecture [5]: smaller endplates and collapsed vesicles
- full innervation of NMJs ([5]; quadriceps and intercostal muscles): 40-50%

Substance: Ex51_Ac0: exon 51-skipping PMO, GTGTCACCAGAGTAACAGTCTGAGTAGGAG (all phosphorodiamidate morpholino (PMO); DG9 cell-penetrating peptide conjugated at 3' end in DG9-PMO)
- effectiveness in restoring dystrophin production relative to eteplirsen [6]: up to 7 times

Substance: eteplirsen
- dystrophin of normal levels [7]: 0.93%
